Measured values: patent US7166598B2, “Piperazine derivatives” (Astellas Pharma Inc., priority 1998, dated 2007)

SMILES	melting point
Cl.Cl.O=C(c1cc(C(F)(F)F)cc(C(F)(F)F)c1)N1CCN(Cc2cccnc2)C[C@H]1Cc1ccc(F)c(O)c1	50 to 60 °C
Cl.Cl.O=C(c1cc(C(F)(F)F)cc(C(F)(F)F)c1)N1CCN(Cc2cccnc2)C[C@H]1Cc1ccc(F)cc1	130 to 137.3 °C
Cl.Cn1cc(CN2CCN(C(=O)c3cc(C(F)(F)F)cc(C(F)(F)F)c3)[C@H](Cc3ccc4ccccc4c3)C2)cn1	> 250 °C
COc1cc(C(=O)N2CCN(Cc3cccnc3)C[C@H]2Cc2ccc3ccccc3c2)cc(C(F)(F)F)c1.Cl.Cl	162 to 168 °C
Cl.Cl.O=C(c1cc(C(F)(F)F)cc(C(F)(F)F)c1)N1CCN(CCCc2cccnc2)C[C@H]1Cc1ccc(Cl)c(O)c1	65 to 70 °C
COc1cc(C[C@@H]2CN(Cc3cnn(C)c3)CCN2C(=O)c2cc(C(F)(F)F)cc(C(F)(F)F)c2)ccc1F.Cl	127 to 135 °C
COc1cc(C[C@@H]2CN(Cc3cccnc3)CCN2C(=O)c2cc(C(F)(F)F)cc(C(F)(F)F)c2)ccc1F.Cl.Cl	143 to 147 °C
COC[C@@H]1CN(CCN2CCN(C(=O)c3cc(SC)cc(C(F)(F)F)c3)[C@H](Cc3ccc(C)c(O)c3)C2)CCO1.Cl.Cl	154 to 168 °C
COC[C@@H]1CN(CCN2CCN(C(=O)c3cc(C(F)(F)F)cc(S(=O)(=O)N(C)C)c3)[C@H](Cc3ccc(C)c(O)c3)C2)CCO1.Cl.Cl	153.5 to 160 °C
Cc1ccc(C[C@@H]2CN(CCN3[C@H](C)COC[C@@H]3C)CCN2C(=O)c2cc(C(F)(F)F)cc(C(F)(F)F)c2)cc1O.Cl.Cl	210 to 220 °C
Cc1ccc(C[C@@H]2CN(Cc3ccc4ncccc4c3)CCN2C(=O)c2cc(C(F)(F)F)cc(C(F)(F)F)c2)cc1O.Cl.Cl	170 to 200 °C
Cc1ccc(C[C@@H]2CN(Cc3cnn(C)c3)CCN2C(=O)c2cc(C(F)(F)F)cc(C(F)(F)F)c2)cc1O.Cl	160 to 180 °C
COC[C@@H]1CN(CC#CCN2CCN(C(=O)c3cc(C(F)(F)F)cc(C(F)(F)F)c3)C(Cc3ccc(C)c(O)c3)C2)[C@@H](C)CO1.Cl.Cl (stereo partly shown)	110 to 135 °C
Cc1ccc(CC2CN(CCN3C[C@H]4C[C@H]3C(C)(C)O4)CCN2C(=O)c2cc(C(F)(F)F)cc(C(F)(F)F)c2)cc1O.Cl.Cl (stereo partly shown)	173 to 185 °C
COC[C@H]1CN(CCN2CCN(C(=O)c3cc(C(F)(F)F)cc(C(F)(F)F)c3)[C@H](Cc3ccc(C)c(O)c3)C2)CCO1.Cl.Cl	225 to 235 °C
Cc1ccc(C[C@@H]2CN(CCN3[C@@H](C)COC[C@@H]3C)CCN2C(=O)c2cc(C(F)(F)F)cc(C(F)(F)F)c2)cc1O.Cl.Cl	240 to 250 °C
CNc1cc(C(=O)N2CCN(CCN3C[C@@H](C)O[C@@H](C)C3)C[C@H]2Cc2ccc(Cl)cc2)cc(C(F)(F)F)c1.Cl.Cl	245.6 to 248.7 °C
C[C@@H]1CN(CCN2CCN(C(=O)c3cc(F)cc(C(F)(F)F)c3)[C@H](Cc3ccc(Cl)cc3)C2)C[C@H](C)O1.Cl.Cl	80.1 to 82.5 °C
C[C@@H]1CN(CCN2CCN(C(=O)c3cc(Cl)cc(Cl)c3)[C@H](Cc3ccc(Cl)cc3)C2)C[C@H](C)O1.Cl.Cl	140.1 to 143.8 °C
Cl.Cl.Cl.Cl.O=C(c1cc(-c2ccncc2)cc(C(F)(F)F)c1)N1CCN(CCN2CCc3ncccc3C2)C[C@H]1Cc1ccc(Cl)cc1	206 to 217 °C
Cl.Cl.Cl.O=C(c1cc(F)cc(C(F)(F)F)c1)N1CCN(CCN2CCc3ncccc3C2)C[C@H]1Cc1ccc(Cl)cc1	127.3 to 130.9 °C

SMILES	melting point
Cc1ccc(C[C@@H]2CN(Cc3csc(N)n3)CCN2C(=O)c2cc(C(F)(F)F)cc(C(F)(F)F)c2)cc1O.Cl.Cl	205 to 215 °C
Cc1ccc(C[C@@H]2CN(Cc3nsc(N)n3)CCN2C(=O)c2cc(C(F)(F)F)cc(C(F)(F)F)c2)cc1O.Cl.Cl	177 to 182 °C
COc1cc(C(=O)N2CCN(CCCc3cccnc3)C[C@H]2Cc2ccc(C(F)(F)F)cc2)cc(C(F)(F)F)c1.Cl.Cl	70 to 80 °C
COC[C@@H]1CN(C/C=C\CN2CCN(C(=O)c3cc(C(F)(F)F)cc(C(F)(F)F)c3)[C@H](Cc3ccc(C)c(O)c3)C2)CCO1.Cl.Cl	180 to 200 °C
COC[C@@H]1COCCN1CCN1CCN(C(=O)c2cc(C(F)(F)F)cc(C(F)(F)F)c2)C(Cc2ccc(C)c(O)c2)C1.Cl.Cl (stereo partly shown)	167 to 172 °C
CNc1cc(C[C@@H]2CN(CCN3CCO[C@H](COC)C3)CCN2C(=O)c2cc(C(F)(F)F)cc(C(F)(F)F)c2)ccc1C.Cl.Cl.Cl	156 to 163 °C
COCC1(COC)CN(CCN2CCN(C(=O)c3cc(C(F)(F)F)cc(C(F)(F)F)c3)[C@H](Cc3ccc(C(F)(F)F)cc3)C2)CCO1.Cl.Cl	123 to 149 °C
Cl.Cl.O=C(c1cc(C(F)(F)F)cc(C(F)(F)F)c1)N1CCN(CCN2CC3CCC(C2)O3)C[C@H]1Cc1ccc(C(F)(F)F)cc1	232 to 250 °C
CN(C)S(=O)(=O)c1cc(C(=O)N2CCN(CCN3CCc4ncccc4C3)C[C@H]2Cc2ccc(C(F)(F)F)cc2)cc(C(F)(F)F)c1.Cl.Cl.Cl	190 to 194 °C
COC[C@H]1CN(CCN2CCN(C(=O)c3cc(C(F)(F)F)cc(C(F)(F)F)c3)[C@H](Cc3ccc(C(F)(F)F)cc3)C2)CCO1.Cl.Cl	188 to 194 °C
Cl.Cl.O=C(c1cc(C(F)(F)F)cc(C(F)(F)F)c1)N1CCN(CCN2CCC[C@H]2CO)C[C@H]1Cc1ccc(C(F)(F)F)cc1	221 to 224 °C
COC[C@@H]1C[C@H](COC)CN(CCN2CCN(C(=O)c3cc(C(F)(F)F)cc(C(F)(F)F)c3)[C@H](Cc3ccc(C(F)(F)F)cc3)C2)C1.Cl.Cl	157 to 160 °C
COc1cc(C[C@@H]2CN(CCN3[C@H](CO)CCC[C@@H]3CO)CCN2C(=O)c2cc(C(F)(F)F)cc(C(F)(F)F)c2)ccc1F.Cl.Cl	159 to 161 °C
COc1cc(C(=O)N2CCN(CCN3CCc4ncccc4C3)C[C@H]2Cc2ccc(C)c(O)c2)cc(C(F)(F)F)c1.Cl.Cl.Cl	192 to 208 °C
COc1cc(C(=O)N2CCN(CC#CCN3CCOCC3(C)C)C[C@H]2Cc2ccc(C)c(O)c2)cc(C(F)(F)F)c1.Cl.Cl	181 to 188 °C
C[C@@H]1CN(CCN2CCN(C(=O)c3cc(Cl)cc(C(F)(F)F)c3)[C@H](Cc3ccc(Cl)c(O)c3)C2)C[C@H](C)O1.Cl.Cl	196 to 199 °C
Cl.Cl.Cl.O=C(c1cc(Cl)cc(C(F)(F)F)c1)N1CCN(CCN2CCc3ncccc3C2)C[C@H]1Cc1ccc(Cl)c(O)c1	200 to 204 °C
Cl.Cl.Cl.Cl.O=C(c1cc(-c2ccncc2)cc(C(F)(F)F)c1)N1CCN(CCN2CCc3ncccc3C2)C[C@H]1Cc1ccc(C(F)(F)F)cc1	205 to 218 °C
COC[C@@H]1CN(CCN2CCN(C(=O)c3cc(C)cc(C(F)(F)F)c3)[C@H](Cc3ccc(Cl)cc3)C2)CCO1.Cl.Cl	148 to 151 °C
COC[C@@H]1CN(CCN2CCN(C(=O)c3cc(SC)cc(C(F)(F)F)c3)[C@H](Cc3ccc(Cl)c(O)c3)C2)CCO1.Cl.Cl	169 to 174 °C
COC[C@@H]1CN(CCN2CCN(C(=O)c3cc(C(F)(F)F)cc(C(F)(F)F)c3)[C@H](Cc3ccc(C(C)C)c(O)c3)C2)CCO1.Cl.Cl	218 to 228 °C

SMILES	melting point
COc1cc(C[C@@H]2CN(CCN3CCc4ncccc4C3)CCN2C(=O)c2cc(C(F)(F)F)cc(C(F)(F)F)c2)ccc1F.Cl.Cl.Cl	175 to 185 °C
COC[C@@H]1CN(CCN2CCN(C(=O)c3cc(C(F)(F)F)cc(C(F)(F)F)c3)[C@H](Cc3ccc(F)c(O)c3)C2)CCO1.Cl.Cl	156 to 168 °C
CC1(C)COCCN1CC#CCN1CCN(C(=O)c2cc(C(F)(F)F)cc(C(F)(F)F)c2)[C@H](Cc2ccc(F)c(O)c2)C1.Cl.Cl	180 to 184 °C
COC[C@@H]1CN(CCN2CCN(C(=O)c3cc(C(F)(F)F)cc(C(F)(F)F)c3)[C@H](Cc3ccc(F)c(OC)c3)C2)CCO1.Cl.Cl	180 to 190 °C
COC[C@@H]1CN(CCN2CCN(C(=O)c3cc(C(F)(F)F)cc(C(F)(F)F)c3)[C@H](Cc3ccc(F)c(F)c3)C2)CCO1.Cl.Cl	196 to 198 °C
COC[C@@H]1CN(CCN2CCN(C(=O)c3cc(OC)cc(C(F)(F)F)c3)[C@H](Cc3ccc(C(F)(F)F)c(OC)c3)C2)CCO1.Cl.Cl	135 to 140 °C
COc1cc(C(=O)N2CCN(CCN3CCc4ncccc4C3)C[C@H]2Cc2ccc(C(F)(F)F)c(OC)c2)cc(C(F)(F)F)c1.Cl.Cl.Cl	190 to 200 °C
Cl.Cn1cc(CN2CCN(C(=O)c3cc(C(F)(F)F)cc(C(F)(F)F)c3)[C@H](Cc3ccc(C(F)(F)F)cc3)C2)cn1	200 to 229 °C
COc1cc(C(=O)N2CCN(CCN3CCc4ncccc4C3)C[C@H]2Cc2ccc(C(F)(F)F)cc2)cc(C(F)(F)F)c1.Cl.Cl.Cl	185 to 191 °C
C[C@@H]1CN(CCN2CCN(C(=O)c3cc(C(F)(F)F)cc(C(F)(F)F)c3)[C@H](Cc3ccc(Cl)cc3)C2)C[C@H](C)O1.Cl.Cl	150 to 175 °C (dec.)
COc1cc(C(=O)N2CCN(CCN3CCC(F)(F)CC3)C[C@H]2Cc2ccc(Cl)cc2)cc(C(F)(F)F)c1.Cl.Cl	220 to 250 °C
C[C@@H]1CN(CCN2CCN(C(=O)c3cc(C(F)(F)F)cc(C(F)(F)F)c3)[C@H](Cc3ccc(Cl)c(O)c3)C2)C[C@H](C)O1.Cl.Cl	172 to 175 °C
COc1cc(C(=O)N2CCN(CCN3CCc4ncccc4C3)C[C@H]2Cc2ccc(Cl)cc2)cc(C(F)(F)F)c1.Cl.Cl.Cl	140 to 170 °C
Cl.Cl.O=C(c1cc(C(F)(F)F)cc(C(F)(F)F)c1)N1CCN(CCN2CCC(F)(F)CC2)C[C@H]1Cc1ccc(F)cc1	264 to 270.6 °C
COc1cc(C(=O)N2CCN(CCN3C[C@@H](C)O[C@@H](C)C3)C[C@H]2Cc2ccc3ccccc3c2)cc(C(F)(F)F)c1.Cl.Cl	188 to 193 °C
Cl.Cl.Cl.O=C(c1cc(C(F)(F)F)cc(C(F)(F)F)c1)N1CCN(CCN2CCc3ncccc3C2)C[C@H]1Cc1ccc(Cl)c(O)c1	237 to 243 °C (dec.)
COc1cc(C(=O)N2CCN(CCN3CCc4ncccc4C3)C[C@H]2Cc2ccc3ccccc3c2)cc(C(F)(F)F)c1.Cl.Cl.Cl	173 to 183 °C
COC[C@H]1CN(CCN2CCN(C(=O)c3cc(OC)cc(C(F)(F)F)c3)[C@H](Cc3c[nH]c4ccccc34)C2)CCO1.Cl.Cl	200 to 210 °C
COc1cc(C(=O)N2CCN(CCN3C[C@@H](C)O[C@@H](C)C3)C[C@H]2Cc2c[nH]c3ccccc23)cc(C(F)(F)F)c1.Cl.Cl	188 to 200 °C
